# Test results published in ChEMBL document CHEMBL6127037, “Design, synthesis, and biological evaluation of imidazolylacetophenone oxime derivatives as novel brain-penetrant agents for Alzheimer's disease treatment” (Eur J Med Chem, 2024).
# The source made the active and inactive calls. The calls are words filed in the database; no cut-off is given here.
# Columns and labels:
# [1] = Cytotoxicity against LPS stimulated mouse BV-2 cells assessed as cell survival at 10 uM by MTT assay; assay type: toxicity, cell-based; conditions: LPS-stimulated BV-2 cells, read-out: Activity
# BV-2 [2] = assay: Anti-neuroinflammatory activity against LPS-stimulated mouse BV-2 cells assessed as inhibition of NO production at 1 uM; assay type: functional; design: scale not given: the % may be the effect or the level left
# BV-2 [3] = assay: Anti-neuroinflammatory activity against LPS-stimulated mouse BV-2 cells assessed as inhibition of NO production at 10 uM; assay type: functional; design: scale not given: the % may be the effect or the level left
# [4] = Cytotoxicity against […] cells assessed as cell survival at 20 uM by MTT assay; assay type: toxicity, cell-based, Rattus norvegicus; conditions: read-out: Survival
# [5] = molecular target: Acetylcholinesterase (Electrophorus electricus) (UniProt O42275); assay: Inhibition of electric eel AChE at 20 uM using […] as substrate pretreated for 20 mins prior to DTNB addition for 30 mins followed by substrate addition and measured after 45 mins by Ellman's method relative to control; conditions: time 95.0 min
# Sequence of Acetylcholinesterase (Electrophorus electricus) (O42275 24-633 limits assumed): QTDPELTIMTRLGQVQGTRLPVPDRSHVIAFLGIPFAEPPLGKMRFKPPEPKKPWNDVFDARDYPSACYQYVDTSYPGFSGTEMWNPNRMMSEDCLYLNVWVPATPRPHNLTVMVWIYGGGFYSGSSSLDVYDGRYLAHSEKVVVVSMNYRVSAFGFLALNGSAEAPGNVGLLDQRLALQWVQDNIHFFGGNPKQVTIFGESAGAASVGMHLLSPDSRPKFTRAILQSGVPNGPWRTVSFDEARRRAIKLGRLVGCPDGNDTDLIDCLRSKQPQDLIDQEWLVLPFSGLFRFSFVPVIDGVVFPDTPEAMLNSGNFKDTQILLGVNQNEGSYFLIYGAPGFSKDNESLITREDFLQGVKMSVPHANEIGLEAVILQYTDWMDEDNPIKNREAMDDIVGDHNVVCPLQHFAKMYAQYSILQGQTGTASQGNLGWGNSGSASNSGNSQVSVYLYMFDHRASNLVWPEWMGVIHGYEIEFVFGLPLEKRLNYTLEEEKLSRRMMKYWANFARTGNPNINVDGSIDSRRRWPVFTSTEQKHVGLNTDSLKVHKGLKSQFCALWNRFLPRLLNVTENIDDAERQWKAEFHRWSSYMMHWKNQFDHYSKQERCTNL
# [6] = Cytotoxicity against mouse HT-22 cells assessed as cell survival at 20 uM by MTT assay; assay type: toxicity, cell-based; conditions: read-out: Survival
# HT-22 = assay: Neuroprotective activity against RSL3 induced ferroptosis in mouse HT-22 cells assessed as increase in cell viability at 10 uM preincubated for 4 hrs followed by RSL3 stimulation and measured after 24 hrs by MTT assay (reference value: 52.1%); assay type: functional; conditions: time 28 hrs
# [7] = molecular target: Amyloid-beta precursor protein (Homo sapiens) (UniProt P05067); assay: Inhibition of self-induced amyloid beta (1 to 42 residues) (unknown origin) aggregation at 20 uM by thioflavin T based fluorescence analysis
# Sequence of Amyloid-beta precursor protein (Homo sapiens) (P05067 whole entry, the tested form may be a part): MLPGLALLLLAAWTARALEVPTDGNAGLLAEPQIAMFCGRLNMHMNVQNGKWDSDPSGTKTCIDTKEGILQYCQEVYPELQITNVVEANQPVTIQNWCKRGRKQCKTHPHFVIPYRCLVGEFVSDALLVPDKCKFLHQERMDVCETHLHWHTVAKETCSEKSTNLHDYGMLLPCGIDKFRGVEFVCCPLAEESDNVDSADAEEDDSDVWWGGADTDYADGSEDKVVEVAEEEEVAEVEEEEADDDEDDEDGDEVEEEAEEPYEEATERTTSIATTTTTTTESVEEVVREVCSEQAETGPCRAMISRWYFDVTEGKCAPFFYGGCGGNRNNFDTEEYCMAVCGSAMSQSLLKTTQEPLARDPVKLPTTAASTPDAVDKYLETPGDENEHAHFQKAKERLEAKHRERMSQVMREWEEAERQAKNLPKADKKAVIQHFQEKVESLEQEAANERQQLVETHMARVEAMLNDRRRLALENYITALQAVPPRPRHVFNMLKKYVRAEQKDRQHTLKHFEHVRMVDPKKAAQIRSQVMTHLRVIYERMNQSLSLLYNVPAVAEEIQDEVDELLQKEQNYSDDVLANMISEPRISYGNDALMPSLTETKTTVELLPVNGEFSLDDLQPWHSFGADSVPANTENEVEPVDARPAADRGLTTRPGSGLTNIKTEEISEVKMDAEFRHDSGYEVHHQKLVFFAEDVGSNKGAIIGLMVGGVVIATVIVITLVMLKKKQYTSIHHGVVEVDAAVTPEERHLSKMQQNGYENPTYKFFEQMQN
# PC12 = assay: Neuroprotective activity against 6-OHDA induced oxidative damage in […] cells assessed as increase in cell viability preincubated for 4 hrs followed by 6-OHDA stimulation and measured after 24 hrs by MTT assay (reference value: 48.6%); assay type: functional, cell-based; conditions: Rattus norvegicus, dose 1-10 µM, time 28.0 hrs
# BV-2 [8] = assay: Anti-neuroinflammatory activity against LPS-stimulated mouse BV-2 cells assessed as inhibition of NO production; assay type: functional, cell-based
# [9] = Drug distribution in ICR mouse kidney measured at 60 mins by micro-PET/CT imaging analysis; assay type: ADME, tissue-based; conditions: in vivo, 1 h
# [10] = Drug distribution in ICR mouse lung measured at 60 mins by micro-PET/CT imaging analysis; assay type: ADME, tissue-based; conditions: in vivo, 1 h
# [11] = Drug distribution in ICR mouse liver measured at 1.25 mins by micro-PET/CT imaging analysis; assay type: ADME, tissue-based; conditions: in vivo, 75 s
# [12] = Drug distribution in ICR mouse heart measured at 60 mins by micro-PET/CT imaging analysis; assay type: ADME, tissue-based; conditions: in vivo, 1 h
# [13] = Drug distribution in ICR mouse kidney measured at 1.25 mins by micro-PET/CT imaging analysis; assay type: ADME, tissue-based; conditions: in vivo, 75 s
# [14] = Drug distribution in ICR mouse brain measured at 1 mins by micro-PET/CT imaging analysis; assay type: ADME, tissue-based; conditions: in vivo
# [15] = Drug distribution in ICR mouse brain measured at 60 mins by micro-PET/CT imaging analysis; assay type: ADME, tissue-based; conditions: in vivo, 1 h
# [16] = Drug distribution in ICR mouse bone measured at 1.25 to 57.5 mins by micro-PET/CT imaging analysis; assay type: ADME, tissue-based, Bone element; conditions: in vivo, time 1.25-57.5 min
# [17] = Drug distribution in ICR mouse brain measured at 1.25 mins by micro-PET/CT imaging analysis; assay type: ADME, tissue-based; conditions: in vivo, 75 s
# [18] = Drug distribution in ICR mouse brain measured after 4 to 5 mins by micro-PET/CT imaging analysis; assay type: ADME, tissue-based; conditions: in vivo, time 4-5 min
# [19] = Drug distribution in ICR mouse lung measured at 1.25 mins by micro-PET/CT imaging analysis; assay type: ADME, tissue-based; conditions: in vivo, 75 s
# [20] = Drug distribution in ICR mouse kidney measured at 5.5 mins by micro-PET/CT imaging analysis; assay type: ADME, tissue-based; conditions: in vivo
# [21] = Drug distribution in ICR mouse heart measured at 1.25 mins by micro-PET/CT imaging analysis; assay type: ADME, tissue-based; conditions: in vivo, 75 s
# [22] = Drug distribution in ICR mouse muscle measured at 1.25 to 57.5 mins by micro-PET/CT imaging analysis; assay type: ADME, tissue-based, Muscle tissue; conditions: in vivo, time 1.25-57.5 min
# [23] = Drug distribution in ICR mouse liver measured at 60 mins by micro-PET/CT imaging analysis; assay type: ADME, tissue-based; conditions: in vivo, 1 h
SMILES,viability at 10 µM [1] [%],Activity (BV-2 [2]) [%],Activity (BV-2 [3]) [%],viability at 20 µM [4] [%],Activity (PC12),EC50 (BV-2 [8]) [µM],other results
C#CCO/N=C(\Cn1ccnc1)c1ccc(C(=O)OC)cc1,105,36,72.7,–,–,–,–
O=C(CCCC[C@@H]1CCSS1)O/N=C(\Cn1ccnc1)c1ccc2c(c1)OCO2,97.5,51.8,99.7,> 95,Dose-Dependent Effect,0.76,inhibition [5]: 54.9%; viability at 20 µM [6]: > 90%; Activity (HT-22): 67.7%; inhibition [7]: inactive
C#CCO/N=C(\Cn1ccnc1)c1ccc(C(=O)OCC)cc1,115,34.8,73.5,–,–,–,–
O=C(Cn1ccnc1)c1ccc2c(c1)OCO2,97.9,21.5,61.6,–,–,–,–
C#CCO/N=C(\Cn1ccnc1)c1ccc2c(c1)OCO2,95.9,45.2,84.5,> 95,Dose-Dependent Effect,1.18,–
COC(=O)CCCCCO/N=C(\Cn1ccnc1)c1ccc2c(c1)OCO2,116,35.4,76,–,–,–,–
[18F]CCO/N=C(\Cn1ccnc1)c1ccc2c(c1)OCO2,–,–,–,–,–,–,Drug uptake [9]: Not Active; Drug uptake [10]: Not Active; Drug uptake [11]: 18.1 %ID/cc; Drug uptake [12]: Not Active; Drug uptake [13]: 3.8 %ID/cc; Drug uptake [14]: Active; Drug uptake [15]: Not Active; Drug uptake [16]: Active; Drug uptake [17]: 7.4 %ID/cc; Drug uptake [18]: Not Active; Drug uptake [19]: 5.2 %ID/cc; Drug uptake [20]: Active; Drug uptake [21]: 5 %ID/cc; Drug uptake [22]: Active; Drug uptake [23]: Not Active
CN(C)c1ccc(/C(Cn2ccnc2)=N/OC(=O)/C=C/c2ccccc2Cl)cc1,105,38.8,65.8,–,–,–,–
Cc1c(CO)ncn1CC(=O)c1ccc2c(c1)OCO2,99.8,27.4,37.7,–,–,–,–
CN(C)c1ccc(/C(Cn2ccnc2)=N/OC(=O)/C=C/c2ccc3c(c2)OCO3)cc1,96.7,22.2,34.2,> 95,Dose-Dependent Effect,15.7,–
c1cn(CCc2ccc3c(c2)OCO3)cn1,93.3,19.6,47.9,–,–,–,–
CN(C)c1ccc(/C(Cn2ccnc2)=N/OC(=O)/C=C/c2ccc(Cl)cc2)cc1,85.6,41.2,54.1,–,–,–,–
COc1cc(/C=C/C(=O)O/N=C(\Cn2ccnc2)c2ccc3c(c2)OCO3)ccc1O,89.4,39.4,67.6,–,–,–,–
C#CCO/N=C(/Cn1ccnc1)c1ccc2c(c1)OCO2,98.4,13.4,25.5,> 95,Dose-Dependent Effect,> 20,–
C#CCO/N=C(\Cn1ccnc1)c1ccc(C(=O)NO)cc1,109,36.2,70.5,> 95,Dose-Dependent Effect,5.61,–
FCCOCCOCCO/N=C(\Cn1ccnc1)c1ccc2c(c1)OCO2,99.9,24.4,53.9,–,–,–,–
